Common to all, as to test: NCI-60 cell line screen, 48 h
Assay [1] relates to TK-10 renal.
Assay [2] has as its system HS 578T breast.
The test system of assay [3] is NCI-H23 lung.
For assay [4], the system named is LOX IMVI melanoma.
In assay [5] the test system is 786-0 renal.
The subject of assay [6] is NCI-H226 lung.
Assay [7] deals with SF-539 CNS.
Assay [8] relates to SW-620 colon.
The test system of assay [9] is NCI-H522 lung.
Assay [10] concerns MCF7 breast.

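Step 1: Grow cells in 96-well plates. Step 2: Expose to compound for 48 hours at 5 concentrations. Step 3: Interpolate endpoints linearly; if unreached, use highest concentration. GI50 is the concentration that inhibits growth by half. TGI: concentration producing complete growth inhibition.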

With `COCCn1c2c([n+](Cc3cnccn3)c1C)C(=O)c1ccccc1C2=O`, the GI50 in assay [1] was 35.2 nM; in [2] it was 302 nM; in [3], below 10 nM; in assay [4] it was below 10 nM; in assay [5], 14.3 nM; in assay [6], below 14.3 nM. Further, the GI50 in assay [7], in assay [8] and in assay [9] was below 10 nM in each case. Also, the TGI in assay [1] is 0.222 µM; in [2], 10.7 µM; in assay [3] it was below 0.0113 µM; in [4], below 0.0118 µM; in assay [5], 0.0992 µM; in assay [6] it was 0.0293 µM. The TGI was 0.0337 µM in assay [7], 0.0176 µM in [8] and below 0.01 µM in [9].
`COc1cc(CC(=O)O)c([N+](=O)[O-])cc1OC`: the TGI in assay [1], in [3], in assay [4], in [5], in [6] and in assay [7] was above 100 µM in each case. Also, the TGI in assay [8] and in [9] was above 100 µM in each case.
As for `CC[C@@]1(O)C(=O)OCc2c1cc1n(c2=O)Cc2c-1nc1cc(F)c(C)c3c1c2[C@@H](NC(=O)CO)CC3`, the GI50 in [1] is 400 nM; in [2], 1250 nM; in assay [3], below 10 nM; in assay [4] it was below 10 nM; in assay [5], below 10 nM; in assay [6] it was below 12.8 nM. Also, the GI50 in assay [7], in assay [8] and in assay [9] was below 10 nM in each case. The TGI was 7.43 µM in assay [1]; above 100 µM in assay [2]; 0.0729 µM in [3]; 0.0314 µM in [4]; 0.439 µM in assay [5]; 0.117 µM in assay [6]. The TGI was 0.0404 µM in [7], above 44.2 µM in assay [8] and 0.328 µM in [9].
`Cc1cc(C)c(/C=N/NS(=O)(=O)c2ccccc2)c(C)c1`: the TGI in assay [1], in assay [3], in [4], in assay [5], in [6] and in [7] was above 100 µM throughout. In assay [8], this compound returned a TGI above 100 µM.
Turning to `N#Cc1cccc(C2C(=O)c3ccc(C(=O)c4ccc5c(c4)C(=O)N(c4ccc(Oc6ccc(N7C(=O)c8ccc(C(=O)c9ccc%10c(c9)C(=O)N(c9cccc(C#N)c9)C%10=O)cc8C7=O)cc6)cc4)C5=O)cc3C2=O)c1` (stereo not given), the TGI in assay [1], in [3], in assay [5], in assay [7], in assay [8] and in assay [9] was above 100 µM in each case.
With `Cc1ccc(NC(=O)CC2SC(=Nc3ccc(Cl)cc3)NC2=O)cc1C` (stereo not given), the TGI is 31.1 µM in assay [1]; 35.6 µM in assay [3]; 33.7 µM in [4]; 32 µM in [5]; above 64.3 µM in [6]; 35.4 µM in assay [7]. Besides, the TGI in assay [8] turned out to be 18.5 µM; in assay [9], 18.4 µM.
Regarding `Fc1ccc(N=C2C=CC(=Nc3ccc(F)cc3)c3ccccc32)cc1`, the TGI in assay [1], in [3], in assay [4], in assay [5], in assay [6] and in assay [7] was above 100 µM throughout. Further, the TGI in assay [8] and in assay [9] was above 100 µM each time.
Turning to `CC1=CC[C@@H](C(C)(C)O)C[C@@H]1O`, the TGI in assay [1], in [3], in assay [4], in assay [5], in [6] and in [7] was above 5000 µM in each case. The TGI in assay [8] and in assay [9] was above 5000 µM in each case.
For `CC1C(O)=C(O)c2ccccc2N1O` (stereo not given), the TGI in assay [1], in assay [3], in assay [4], in assay [5], in assay [6] and in assay [7] was above 100 µM each time. Also, the TGI in [8] and in assay [9] was above 100 µM each time.
As for `Clc1ccccc1C1SCc2nc3ccccc3n21` (stereo not given), the TGI in [1] was 71.6 µM; in assay [3], above 100 µM; in [4], 81.8 µM; in assay [5], 88 µM; in assay [6] it was 70.6 µM; in assay [7], above 100 µM. Moreover, the TGI was above 100 µM in assay [8] and 49.5 µM in assay [9].
Regarding `O=C1c2ccc3c4c(ccc(c24)C(=O)N1CCNCc1ccccc1)C(=O)N(CCNCc1ccccc1)C3=O`, the GI50 was 2930 nM in assay [1]; 1830 nM in assay [2]; 1860 nM in assay [3]; 1670 nM in [4]; 1890 nM in assay [5]; 1880 nM in assay [7]. Besides, the GI50 in assay [8] is 306 nM. Moreover, the TGI in assay [1] is above 100 µM; in [2], 5.27 µM; in assay [3], 3.89 µM; in assay [4], 3.16 µM; in assay [5], 3.59 µM; in [7], 3.64 µM. The same compound displayed a TGI in assay [8] of 1.37 µM.
Turning to `COC1C(=O)CCC2(CO2)C1(O)C1(C)OC1CC=C(C)C` (stereo not given), the TGI is above 100 µM in assay [1]; 53 µM in assay [10]; above 100 µM in [2]; above 100 µM in [3]; above 100 µM in [5]; above 100 µM in [8].
Regarding `Cc1ccccc1-n1c(CCl)nc2ccc(Br)cc2c1=O`, the TGI in [1] came to 70.1 µM; in assay [3] it was 25.3 µM; in assay [4] it was 1.46 µM; in assay [5], 20.6 µM; in assay [6], 28.4 µM; in [7] it was 21.8 µM. The TGI in [8] is 8.95 µM; in assay [9] it was 5.83 µM.

Values taken from PubChem BioAssay (NCI).
